Measured values reported in PubChem BioAssay (NCI).
Where “and” joins values, the source holds several entries; their conditions need not be identical. Equal values may be shown once.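 Five concentrations, 48 hours, 96-well plates. Abbreviation: GI50, concentration required for 50% inhibition of growth. The concentration for full growth arrest is given as TGI.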

Assays:
Experiment in all cases: inhibition of tumour cell growth, NCI panel, 48 h
SN12C renal = test system: SN12C renal
SK-OV-3 ovarian = test system: SK-OV-3 ovarian
UO-31 renal = test system: UO-31 renal
SK-MEL-2 melanoma = test system: SK-MEL-2 melanoma
SF-268 CNS = test system: SF-268 CNS
HCT-15 colon = test system: HCT-15 colon
MDA-MB-231 breast = test system: MDA-MB-231 breast
MCF7 breast = test system: MCF7 breast

Row | SMILES | GI50 (SN12C renal) | TGI (SN12C renal) | GI50 (SK-OV-3 ovarian) | TGI (SK-OV-3 ovarian) | GI50 (UO-31 renal) | TGI (UO-31 renal) | GI50 (SK-MEL-2 melanoma) | TGI (SK-MEL-2 melanoma) | GI50 (SF-268 CNS) | TGI (SF-268 CNS) | GI50 (HCT-15 colon) | TGI (HCT-15 colon) | GI50 (MDA-MB-231 breast) | TGI (MDA-MB-231 breast) | GI50 (MCF7 breast) | TGI (MCF7 breast)
1 | COc1ccc(-c2csc(-c3cc(Cl)cc(Cl)c3Cl)n2)cc1 | > 100 µM | > 100 µM | 96.8 µM | > 100 µM | > 100 µM | > 100 µM | > 100000 nM | > 100 µM | 58 µM | > 100 µM | 73.5 µM | > 100 µM | 60000 nM | > 100 µM | 5.91 µM | > 100 µM
2 | O=C1C(Cl)=C(Nc2cccc(O)c2)C(=O)N1c1ccccc1Cl | 17.3 µM | 46.4 µM | 49.9 µM | > 100 µM | 32.5 µM | > 100 µM | 25500 nM | 61.6 µM | 13.6 µM | 60.6 µM | 35.2 µM | > 100 µM | 5680 nM | 42.4 µM | 29.8 µM | > 100 µM
3 | COc1ccc(-c2c(-c3cc(OC)c4c(c3)OCO4)noc2N)cc1 | 0.147 µM | > 93 µM | 0.032 µM | 1.29 µM | 0.463 µM | 35.5 µM | 32.4 nM | 21.5 µM | 0.11 µM | > 91 µM | 0.0431 µM | > 100 µM | 181 nM | 16.9 µM | 0.028 µM | 28.5 µM
4 | Cc1ccc(S(=O)(=O)Cc2nc(-c3ccc(C(=O)NCc4cccnc4)cc3)oc2C)cc1 | < 0.01 µM | > 100 µM | 14.5 µM | > 100 µM | 23.7 µM | > 100 µM | 5450 nM | > 86.3 µM | 19 µM | > 100 µM | 0.0524 µM | > 100 µM | 5780 nM | > 100 µM | 3.93 µM | > 100 µM
5 | Nc1c(C(=O)Nc2ccccc2F)sc2nc3c(cc12)C(=O)CCC3 | > 65.3 µM | > 100 µM | 0.746 µM | > 100 µM | > 100 µM | > 100 µM | 683 nM | > 100 µM | > 30.6 µM | > 100 µM | 0.642 µM | > 100 µM | 7530 nM | > 100 µM | 0.499 µM | > 100 µM
6 | CCCCn1sc(=O)n(Cc2ccc(CNC(=O)OCc3ccc4c(Br)cc(Br)c(O)c4n3)cc2)c1=O | 0.53 µM | > 100 µM | 1.72 µM | > 100 µM | 1.05 µM | > 100 µM | 1280 nM | > 100 µM | 1.05 µM | > 100 µM | 0.468 µM | > 100 µM | 475 nM | > 51.1 µM | 0.369 µM | > 100 µM
7 | CCN1C(=O)N(c2ccccc2)C2NN=c3s/c(=C4\C(=O)N(C(C)C)c5ccccc54)c(=O)n3C21 (stereo not given) | 1.86 µM | > 100 µM | 1.07 µM | > 100 µM | 2.35 µM | > 100 µM | 5990 nM | > 100 µM | 2.1 µM | > 100 µM | 0.733 µM | > 56.6 µM | 2510 nM | 11.6 µM | 0.483 µM | > 100 µM
8 | C#CCOc1cccc(Nc2ncnc3ccc(NC(=O)CCl)cc23)c1 | 0.3 µM | > 79.8 µM | 2.59 µM | > 100 µM | 0.312 µM | 7.11 µM | 4070 nM | 24.1 µM | 0.674 µM | 10.3 µM | 0.0709 µM | 15.1 µM | 1070 nM | 30.8 µM | 0.428 µM | 14.4 µM
9 | CC1=C[S+](c2ccccc2)c2cccc3cc4ccccc4c1c23 (stereo not given) | 0.172 µM | 1.25 µM | 2.41 µM | 14.9 µM | 0.312 µM | 7.64 µM | 1520 nM | 8.55 µM | 0.237 µM | 1.76 µM | 0.378 µM | 8.44 µM | 1690 nM | 4.48 µM |  | 
10 | CCc1nc(Cl)nc(Cl)c1Cl |  | 6.69 µM |  | 18.4 µM |  | 0.674 µM |  |  |  | 3.37 µM |  | 1.88 µM |  | 13.1 µM |  | 5.56 µM
11 | CC(=O)OCC1O[C@@H]([S-])C(OC(C)=O)[C@H](OC(C)=O)[C@@H]1OC(C)=O.[Au+].c1ccc(CN2[CH-]N(Cc3ccccc3)C(c3ccccc3)=C2c2ccccc2)cc1 | 2.22 µM | 5.58 µM | 3.39 µM | 10.2 µM | 1.95 µM | 4.47 µM | 1740 nM | 3.43 µM |  |  | 1.47 µM | 2.94 µM |  |  |  | 
12 | CC(=O)[O-].O=C([CH-]C(=O)c1ccccc1)c1ccccc1.O=C([CH-]C(=O)c1ccccc1)c1ccccc1.[Y+3] | 6.23 µM | 38 µM | 8.31 µM | 37.1 µM | 3.84 µM | 9.66 µM | 2850 nM | 9.69 µM | 4.27 µM | 31.3 µM | 5.45 µM | 26.7 µM |  |  |  | 
13 | N#Cc1ccc(C(c2ccc(C#N)cc2)n2cncn2)cc1 | > 5000 µM | > 5000 µM | > 5000 µM | > 5000 µM | 60.8 µM and 119 µM | > 5000 µM |  |  | > 5000 µM | > 5000 µM | > 5000 µM | > 5000 µM |  |  | > 5000 µM | > 5000 µM
14 | COc1ccc(-c2ccc(/C=N/n3c(C)nn(CN4CCN(C)CC4)c3=S)o2)c([N+](=O)[O-])c1 | > 100 µM | > 100 µM | 45 µM | > 100 µM | > 100 µM | > 100 µM |  |  | 28.2 µM | > 100 µM | 28.7 µM | > 100 µM |  |  | 30.4 µM | > 100 µM
15 | CC/C(C)=C1\OC(=O)C(C)C(O)C(Cc2cccnc2)NC(=O)C(NC(=O)c2ncccc2O)C(C)OC1=O (stereo not given) |  | > 100 µM |  | > 100 µM |  |  |  | > 100 µM |  | > 100 µM |  | > 100 µM |  | > 100 µM |  | > 100 µM
16 | C=C1C(=O)O[C@H]2[C@H]1CC/C(COC(=O)c1ccc(C#N)cc1)=C\CC[C@@]1(C)O[C@@H]21 | 2.22 µM | 5.75 µM | 15.8 µM | 29.2 µM | 1.57 µM | 3.34 µM | 1980 nM | 4.54 µM | 2.2 µM | 5.09 µM | 1.44 µM | 3.22 µM | 2200 nM | 5.24 µM |  | 
17 | Cc1cc(C)nc(SC2=C(Nc3cccc(Cl)c3C)C(=O)N(Cc3ccccc3)C2=O)n1 |  |  | > 160 µM | > 160 µM | > 160 µM | > 160 µM | > 160000 nM | > 160 µM | > 160 µM | > 160 µM | > 160 µM | > 160 µM | > 160000 nM | > 160 µM | > 160 µM | > 160 µM
